The source of these data is patent publication US12589103B2, “Antimicrobial and antiviral effects of C2-C7 alkyl boronic acids” (CORNELL UNIVERSITY, priority 2019, dated 2026).

Entries after “also recorded” stand apart in the source; their conditions may differ.

Data set [1] concerns Gram Positive aerobes and probiotic species (Lactobacillus, Bifidobacteria). Kind of data set: Bacterial growth panel, impact on non-target species (selectivity). The note with it: for selectivity against Probiotic spp: compared with BA. It is filed as cell-based.
In data set [2] the test system is enteric pathogens (E. coli, Salmonella, Listeria monocytogenes, Klebsiella). Kind of data set: Bacterial growth panel, OD600 growth-curve AUC ratio (heat map). It is filed as cell-based. Conditions: for antibacterial activity / potency against enteric pathogens (growth, AUC+test compound:AUC−test compound): 40 mM (BA, EBA, PBA), 20 mM (BBA), 10 mM (PeBA), 5 mM (HBA, SBA), 1 mM (OBA), 0.5 mM (DBA), 2 mM (DoDBA), 20 mM (FMPBA), 24-48 hrs; for selectivity for Gram Negative enteropathogens: growth panel.

Data set [3] has as its system Feline Infectious Peritonitis Virus (FIPV) Black (TN-406). As to the kind of experiment: FIPV replication and syncytium formation, immunofluorescence. The class given is cell-based, Feline Coronavirus type I. The note with it: 10, 20, 30, 40 mM; Feline Lung cells, 18 h post-infection.
For the next data set, the system named is Feline Lung cells. Kind of data set: Cytotoxicity in FIPV infected Feline Lung cells.
Another data set concerns Listeria monocytogenes. Kind of data set: Bacterial growth panel, Listeria. It is filed as cell-based. As for the experimental part: (§1) The control sample contained 40 mM NaCl.
Growth of bacteria with or without addition of C2-C8 C10, and C12 alkyl boronic acids, BA, or FMPBA was monitored by readings at OD600. […] The area under the curve (“AUC”) of the growth curve was calculated and the results were expressed as AUC+test compound:AUC−test compound.

In the next data set the test system is FIPV. The note with it: known drugs; cited from earlier work.
The subject of data set [4] is probiotic Lactobacillus spp. Kind of data set: Growth of probiotic Lactobacillus strains. The note with it: three Lactobacillus strains.
Data set [5] has as its system AIEC and cancer associated E. coli. As to the kind of experiment: Soft agar motility assay, E. coli. The class given is cell-based. Conditions: 10 h, AIEC NC101, 541-1, cancer associated E. coli. As for the experimental part: The ability of ABA C1-3 and BA to impact the motility of E. coli and Salmonella was evaluated using sloppy agar treated with and without BA and C1-C3 alkyl boronic acids. Motility is strongly linked to the virulence phenotype of these bacterial strains. E. coli was grown overnight at 37° C. in LB broth. Soft agar plates (1% tryptone, 0.5% NaCl, 0.25% agar) were prepared the day before the assay was carried out. Sterile NaCl (control), boric or boronic acid stock solution was added into the agar right before pouring the plates. The overnight cultures of E. coli were transferred (3 μl) on to the center of each plate, followed by incubation of the plates at 37° C. for 10 h. E. coli motility was quantified by measuring the diameter of the circular swarming area formed by the growing motile bacteria.

For another data set, the system named is Henle-407 cells. The note with it: higher concentrations.
The nature of data set [6]: DSS induced colitis in mice. It is filed as in vivo, C57BL mice. Conditions: 40 mM in drinking water after DSS (3%). As for the experimental part: On the basis of favorable in vivo toxicity tests, the ability of BA and EBA to reduce the severity of inflammation in murine models of microbially driven IBD was tested. The effect of BA and EBA (40 mM) on intestinal inflammation was evaluated in mice with dextran sodium sulfate (“DSS”) induced colitis. The DSS model has a complex etiopathogenesis that involves host-immune and inflammatory responses and the enteric microbiome BA To test their protecting ability to the gastrointestinal tract, boric and ethylboronic acid were given to C57BL mice at 40 mM concentration respectively in drinking water after DSS (3%) treatment. Body weight and fecal samples were taken before and after 6-day treatment. At the 6th day, all mice were euthanized for gross necropsy and histopathology. Intestinal sections were collected and embedded for pathological and FISH analysis. Fecal samples were used for 16s and lipocalin analysis.

The subject of data set [7] is AIEC in murine macrophage J774A.1 cells. Kind of data set: Uptake and survival of AIEC in J774A.1 macrophages. The class given is cell-based, E. coli.
Another data set relates to AIEC E. coli. Conditions: complex media lacking ethanolamine or fucose.
For data set [8], the system named is diarrheagenic E. coli and APEC. Kind of data set: Growth of diarrheagenic and APEC E. coli in LB media. It is filed as cell-based. Conditions: 30 mM. As for the experimental part: as §1
Diarrheagenic E. coli pathogroups differ by their preferential host colonization sites, virulence mechanisms, and clinical symptoms.

A short description of data set [9]: 8-week toxicity study in mice, drinking water. It is filed as in vivo, C57/B18 mice. The note with it: mouse, in vivo. As for the experimental part:
The toxicity of boric and ethylboronic acids were examined with C57/B18 mice. At concentrations of 0, 10, 20, and 40 mM, the two chemicals were given to each group (6 mice) in drinking water. The body weight of each mouse was recorded weekly for 8 weeks, and fecal samples were also collected weekly for 16s sequencing. All animals were sacrificed at the end of 8th week. The length of whole intestine and ileum of each mouse was measured, and sections of the intestine (i. e. small intestine, ileum, cecum, and large intestine) were taken for histopathological and FISH analysis. Fecal samples were used for 16s and lipocalin analysis.
For lipocalin analysis, mouse fecal pellets were collected and frozen at −80 C during toxicity study. To determine lipocalin activity fecal pellets were diluted in microfuge tubes 1/30 with 0.1% Tween20/PBS and vortexed for 20 min at maximum speed. Undissolved particles were removed by centrifuging at 12,000 rpm for 10 min at 4 C. Supernatant was removed and placed into a clean microfuge tube. Lipocalin activity was determined using Mouse Lipocalin-2/NGAL DuoSet ELISA Kit (R&D Systems, DY1857) per manufacturer's instructions.

Data set [10] deals with AIEC E. coli (541-1, LF82) virulence genes. Kind of data set: Virulence gene expression of AIEC (qRT-PCR). The class given is cell-based. The note with it: 30 mM. As for the experimental part:
Total RNA was extracted using the Qiagen RNAProtect-RNeasy Kit per manufacturer's protocol. Total RNA was treated with TURBO DNA-Free Kit (Ambion), followed by a two-step qRT-PCR analysis, using Qiagen's QuantiTect Reverse Transcription Kit and QuantiNova SYBR Green PCR Kit. Each qPCR reaction contained 1 μl of cDNA, 0.7 μl of each forward and reverse primers (10 μM), 5 μL of 2× SYBR Green Master Mix, 1 μl of QN ROX Reference Dye and […] of nuclease-free water to make the total volume of 10 μl. The reaction was run with ABI7000 (Applied Biosystems). […] The relative change of a targeted gene expression was calculated by using the equation RQ=2^−ΔΔCT.
In general terms: Real-time PCR tracks product formation cycle by cycle.

A further data set deals with nF-κB. As to the kind of experiment: E. coli induced nF-κB activation in HEK-Blue KD-TLR5 cells (SEAP reporter). The class given is cell-based. The note with it: m.o.i 20, SEAP at 24 h. As for the experimental part:
HEK-Blue KD-TLR5 cells were used to detect the promotor activation of nF-κB by E. coli infection with or without boric or boronic acid treatment. nF-κB is the prototypical transcription factor for pro-inflammatory cytokines in epithelium. Briefly, cells were seeded in 96-well plates at a density of 5×10^4 cells per well. E. coli was diluted into fresh cell medium containing either NaCl (Control), boric or boronic acid at an m.o.i of 200 as 10× inocula, followed by addition of this inoculum (10 μl) into each well containing 100 μl of medium for a final m.o.i of 20. At 3 h post infection, the cell medium was carefully removed from each well, and replaced with 100 μl of fresh medium containing gentamycin (200 μg mL^−1). At 24 h post infection, the spent medium was collected, and centrifuged at 12,000 r.p.m. for 5 min to remove any particulate matter. QUANTI-Blue Kit (InvivoGen, San Diego, CA, USA) was used to detect the reporter protein SEAP (secreted alkaline phosphatase) following the manufacturer's instructions.

`CCCCB(O)O` [BBA, butyl boronic acid]: the “selectivity against Probiotic spp” value in data set [1] was “more selective than BA”. Further, in data set [2], the “antibacterial activity / potency against enteric pathogens (growth, AUC+test compound:AUC−test compound)” value (from here on “antibacterial activity / potency”) is reported as “high potency vs enteropathogens while somewhat sparing probiotic species” and the “selectivity for Gram Negative enteropathogens” value is reported as “highest”. Besides, in data set [3], the “replication and syncytium formation of FIPV” value is “inhibited replication and syncytium formation of FIPV in infected cells; also recorded: antiviral activity was observed at lower doses without cytotoxicity”. Also, the “cytotoxicity in antiviral assay” value in the data set with Feline Lung cells is recorded as “Cytotoxicity was observed”. Moreover, the “selectivity of activity against Listeria monocytogenes” value with Listeria monocytogenes is reported as “selectivity apparent”.
As for `N#C[C@@]1(c2ccc3c(N)ncnn23)O[C@H](CO)[C@@H](O)[C@H]1O` [GS-441524], the “efficacy against FIPV” value with FIPV was “some efficacy against FIPV”.
As for `Cc1ccc(B(O)O)c(F)c1` [FMPBA, 2-fluro-4-methlyphenylboronic acid, reference compound], the “selectivity: impact on Gram Positive aerobes and probiotic species” value in [1] (same concentrations as growth panel) was “not selective and killed more Gram Positive aerobes and probiotic species than C2-C7 alkyl boronic acid compounds; also recorded: minimally selective”. In data set [2], the “antibacterial activity / potency” value was “more generalized and potent antibacterial activity than C2-C7 alkyl boronic acid compounds; also recorded: bacteriocidal”.
In the case of `CB(O)O` [MBA, methyl boronic acid, reference compound], in data set [4], the “growth of probiotic Lactobacillus spp” value is on record as “do not suppress growth”. For the same compound, in data set [5], the “motility of E. coli” value is recorded as “had less impact”.
As to `CCCCCCB(O)O` [HBA, hexyl boronic acid], the “selectivity against Probiotic spp” value in data set [1] is “more selective than BA”. In [2], the “antibacterial activity / potency” value was “high potency vs enteropathogens while somewhat sparing probiotic species” and the “selectivity for Gram Negative enteropathogens” value is “highest”. For the same compound, the “cytotoxicity in Henle cells” value with Henle-407 cells is on record as “cytotoxic at higher concentrations”. Moreover, the “replication and syncytium formation of FIPV” value in data set [3] was “inhibited replication and syncytium formation of FIPV in infected cells; also recorded: antiviral activity was observed at lower doses without cytotoxicity”. In addition, the “cytotoxicity in antiviral assay” value in the data set on Feline Lung cells is listed as “Cytotoxicity was observed”. Besides, the “selectivity of activity against Listeria monocytogenes” value in the data set with Listeria monocytogenes is listed as “selectivity apparent”.
For `CCCCCB(O)O` [PeBA, pentyl boronic acid], in the data set with Henle-407 cells, the “cytotoxicity in Henle cells” value was “cytotoxic at higher concentrations”.
Regarding `CCCCCCCCCCB(O)O` [DBA, decyl boronic acid, reference compound], the “antibacterial activity / potency” value in data set [2] was “marked decrease in antibacterial activity”; in data set [2] (listed as C10) it was “much less potency than C2-C7 alkyl boronic acids”.
`CCCCCCCB(O)O` [SBA, heptyl boronic acid]: the “selectivity for Gram Negative enteropathogens” value in data set [2] is “highest”.
Take `OB(O)O` [BA, Boric acid, reference compound]: in data set [6], the “colon length in DSS colitis versus control mice” value was “significantly different”, the “fecal lipocalin levels in DSS colitis versus control mice” value is on record as “significantly different” and the “intestinal bleeding in DSS colitis” value is listed as “observed”. In addition, in [6] (6-day treatment), the “body weight in DSS colitis” value is “reduced”. Moreover, the “survival of AIEC in J774A.1 macrophages” value in data set [7] (30 mM during infection, 24 h post infection) is “inhibited the survival”. Also, in data set [7] (30 mM, 1 h), the “uptake of AIEC by J774A.1 macrophages” value is listed as “inhibited the uptake”. In data set [3], the “replication and syncytium formation of FIPV” value was “able to inhibit replication and syncytium formation”. Also, the “suppression of AIEC growth in complex media” value with AIEC E. coli is reported as “effective in suppressing AIEC growth”. Moreover, the “motility of E. coli” value in data set [5] is listed as “had less impact”. Also, the “inhibition of growth of diarrheagenic and APEC E. coli” value in data set [8] is “have activity versus the diarrheagenic E. coli and APEC that varies by pathogroup”. In addition, the “fecal 16S profiles” value in [9] is “not significantly different from control mice”. In addition, in data set [10], the “pduC expression in 541-1” value is “Upregulation” and the “pduC expression in LF-82” value was “Upregulation”. For the same compound, the “induction of nF-κB by E. coli” value with nF-κB is reported as “reduced the induction of nF-κB by E. coli”.
With `CCCCCCCCB(O)O` [OBA, octyl boronic acid, reference compound], the “antibacterial activity / potency” value is given as “marked decrease in antibacterial activity” in data set [2] and “much less potency than C2-C7 alkyl boronic acids” in [2] (listed as ABA C8).
